Assay [1] relates to HIV. The following applies: cited from earlier work.
The test system of assay [2] is bacteria. The conditions noted are these: cited from earlier work.
The subject of assay [3] is S. aureus ATCC 25923. As to the kind of experiment: In vitro binding of 99mTc-labelled agents to viable S. aureus bacteria. The arrangement: species or system Staphylococcus aureus. The following applies: 10 μg concentration, time not stated.

In the case of `CCCCCCCCNCCC[C@@H](C)[C@H]1CC[C@H]2[C@@H]3[C@H](OCCCN)C[C@@H]4C[C@H](OCCCN)CC[C@]4(C)[C@H]3C[C@H](OCCCN)[C@]12C` [CSA-13], the “HIV infection of primary human CD4+ T cells” value in assay [1] is reported as “inhibit HIV infection”.
With `O=C([O-])CN(CCN(CC(=O)[O-])CC(=O)[O-])CCN(CC(=O)[O-])CC(=O)[O-].[99Tc+4]` [Compound 99mTc-DTPA], the “in-vitro binding in published reports” value in assay [2] is greater than 8%. Moreover, the “In vitro binding to bacteria” value in assay [3] was roughly 10%.
